Measurements published in PubChem BioAssay AID256 (DTP/NCI, 2004).
Inconclusive results and toxic doses are left out. How the source made its calls: active means survival T/C of 150% or more; inactive means T/C below 125% in these data.

Tested on: CD2F1 mice, L1210 leukemia ip, survival T/C
Assay: NCI In Vivo Anticancer Drug Screen. Data for tumor model L1210 Leukemia (intraperitoneal) in CD2F1 (CDF1) mice
Conditions: endpoint: mean survival time, higher = longer survival
Method in brief: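 Tumor-bearing mice (transplanted tumor) were split into treated and vehicle control groups, and the measured endpoint of each treated group was divided by that of its vehicle controls.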

[1] = dose: 25.0 mg/kg/injection, schedule: Q01DX009 (ip), vehicle: saline
[2] = dose: 50.0 mg/kg/injection, schedule: Q01DX009 (ip), vehicle: saline
[3] = dose: 50.0 mg/kg/injection, schedule: Q04DX003 (ip), vehicle: saline
[4] = dose: 100.0 mg/kg/injection, schedule: Q01DX001 (ip), vehicle: saline
[5] = dose: 100.0 mg/kg/injection, schedule: Q01DX009 (ip), vehicle: saline
[6] = dose: 100.0 mg/kg/injection, schedule: Q04DX003 (ip), vehicle: saline
[7] = dose: 200.0 mg/kg/injection, schedule: Q01DX001 (ip), vehicle: saline
[8] = dose: 200.0 mg/kg/injection, schedule: Q01DX009 (ip), vehicle: saline
[9] = dose: 200.0 mg/kg/injection, schedule: Q04DX003 (ip), vehicle: saline
[10] = dose: 400.0 mg/kg/injection, schedule: Q01DX001 (ip), vehicle: saline
[11] = dose: 400.0 mg/kg/injection, schedule: Q01DX009 (ip), vehicle: saline
[12] = dose: 400.0 mg/kg/injection, schedule: Q04DX003 (ip), vehicle: saline
[13] = dose: 100.0 mg/kg/injection, schedule: Q04DX002 (ip), vehicle: saline
[14] = dose: 200.0 mg/kg/injection, schedule: Q04DX002 (ip), vehicle: saline
[15] = dose: 400.0 mg/kg/injection, schedule: Q04DX002 (ip), vehicle: saline
[16] = dose: 100.0 mg/kg/injection, schedule: Q01DX001 (ip), vehicle: saline with Tween-80
[17] = dose: 200.0 mg/kg/injection, schedule: Q01DX001 (ip), vehicle: saline with Tween-80
[18] = dose: 400.0 mg/kg/injection, schedule: Q01DX001 (ip), vehicle: saline with Tween-80
[19] = dose: 6.25 mg/kg/injection, schedule: Q01DX009 (ip), vehicle: saline with Tween-80
[20] = dose: 12.5 mg/kg/injection, schedule: Q01DX009 (ip), vehicle: saline with Tween-80

Measured: T/C

C[C@]12C=CC(=O)C=C1CC[C@@H]1[C@@H]2C(=O)C[C@@]2(C)[C@H]1CC[C@]2(O)C(=O)CO
inactive: dose: 6.25 mg/kg/injection, schedule: Q03HX008 (ip), vehicle: saline 98 % of control | dose: 6.25 mg/kg/injection, schedule: Q03HX016 (ip), vehicle: saline 97 % of control | dose: 6.25 mg/kg/injection, schedule: Q03HX024 (ip), vehicle: saline 100 % of control | dose: 12.5 mg/kg/injection, schedule: Q03HX008 (ip), vehicle: saline 98 % of control | dose: 12.5 mg/kg/injection, schedule: Q03HX016 (ip), vehicle: saline 98 % of control | dose: 12.5 mg/kg/injection, schedule: Q03HX024 (ip), vehicle: saline 96 % of control | [1] 102 % of control | dose: 25.0 mg/kg/injection, schedule: Q03HX008 (ip), vehicle: saline 101 % of control | dose: 25.0 mg/kg/injection, schedule: Q03HX016 (ip), vehicle: saline 104 % of control | dose: 25.0 mg/kg/injection, schedule: Q03HX024 (ip), vehicle: saline 95 % of control | dose: 50.0 mg/kg/injection, schedule: Q01DX001 (ip), vehicle: saline 93 % of control | dose: 50.0 mg/kg/injection, schedule: Q01DX001 (oral), vehicle: saline 105 % of control | [2] 102 % of control | dose: 50.0 mg/kg/injection, schedule: Q01DX009 (oral), vehicle: saline 100 % of control | dose: 50.0 mg/kg/injection, schedule: Q03HX008 (ip), vehicle: saline 105 % of control | dose: 50.0 mg/kg/injection, schedule: Q03HX016 (ip), vehicle: saline 101 % of control | dose: 50.0 mg/kg/injection, schedule: Q03HX024 (ip), vehicle: saline 101 % of control | [3] 100 % of control | dose: 50.0 mg/kg/injection, schedule: Q08DX002 (ip), vehicle: saline 90 % of control | [4] 102 % of control | dose: 100.0 mg/kg/injection, schedule: Q01DX001 (oral), vehicle: saline 103 % of control | [5] 103 % of control | dose: 100.0 mg/kg/injection, schedule: Q01DX009 (oral), vehicle: saline 96 % of control | dose: 100.0 mg/kg/injection, schedule: Q01DX009 (sc), vehicle: steriod suspending solution 107 % of control | dose: 100.0 mg/kg/injection, schedule: Q03HX008 (ip), vehicle: saline 105 % of control | dose: 100.0 mg/kg/injection, schedule: Q03HX016 (ip), vehicle: saline 98 % of control | dose: 100.0 mg/kg/injection, schedule: Q03HX024 (ip), vehicle: saline 101 % of control | [6] 100 % of control | dose: 100.0 mg/kg/injection, schedule: Q08DX002 (ip), vehicle: saline 91 % of control | [7] 104 % of control | dose: 200.0 mg/kg/injection, schedule: Q01DX001 (oral), vehicle: saline 104 % of control | [8] 90 % of control | dose: 200.0 mg/kg/injection, schedule: Q01DX009 (oral), vehicle: saline 98 % of control | dose: 200.0 mg/kg/injection, schedule: Q01DX009 (sc), vehicle: steriod suspending solution 107 % of control | [9] 107 % of control | dose: 200.0 mg/kg/injection, schedule: Q08DX002 (ip), vehicle: saline 93 % of control | [10] 107 % of control | dose: 400.0 mg/kg/injection, schedule: Q01DX001 (oral), vehicle: saline 105 % of control | [11] 103 % of control | dose: 400.0 mg/kg/injection, schedule: Q01DX009 (oral), vehicle: saline 91 % of control | dose: 400.0 mg/kg/injection, schedule: Q01DX009 (sc), vehicle: steriod suspending solution 104 % of control | [12] 100 % of control | dose: 400.0 mg/kg/injection, schedule: Q08DX002 (ip), vehicle: saline 89 % of control | dose: 800.0 mg/kg/injection, schedule: Q01DX001 (ip), vehicle: saline 107 % of control | dose: 800.0 mg/kg/injection, schedule: Q01DX001 (oral), vehicle: saline 104 % of control | dose: 800.0 mg/kg/injection, schedule: Q01DX009 (oral), vehicle: saline 103 % of control | dose: 800.0 mg/kg/injection, schedule: Q01DX009 (sc), vehicle: steriod suspending solution 98 % of control | dose: 800.0 mg/kg/injection, schedule: Q04DX003 (ip), vehicle: saline 95 % of control | dose: 800.0 mg/kg/injection, schedule: Q08DX002 (ip), vehicle: saline 94 % of control

CC(=O)N1CCCC2=C1CCCCCC2
inactive: dose: 12.5 mg/kg/injection, schedule: Q04DX003 (ip), vehicle: saline 101 % of control | [1] 110 % of control | dose: 25.0 mg/kg/injection, schedule: Q04DX003 (ip), vehicle: saline 88 % of control | [2] 115 % of control | [3] 88 % of control | [4] 96 % of control | [5] 113 % of control | [13] 102 % of control | [6] 90 % of control | [7] 102 % of control | [8] 110 % of control | [14] 98 % of control | [9] 95 % of control | [10] 93 % of control | [15] 95 % of control | [12] 91 % of control | dose: 500.0 mg/kg/injection, schedule: Q04DX002 (ip), vehicle: saline 98 % of control | dose: 600.0 mg/kg/injection, schedule: Q01DX001 (ip), vehicle: saline 93 % of control

Cc1ccc(S(=O)(=O)N/N=C/c2ccc(Cl)s2)cc1
inactive: [16] 94 % of control | [17] 97 % of control | [18] 97 % of control

O=[N+]([O-])c1cccc(N=Cc2ccc3c(c2)OCO3)c1
inactive: dose: 100.0 mg/kg/injection, schedule: Q04DX003 (ip), vehicle: alcohol 105 % of control | dose: 200.0 mg/kg/injection, schedule: Q04DX003 (ip), vehicle: alcohol 108 % of control | dose: 400.0 mg/kg/injection, schedule: Q04DX003 (ip), vehicle: alcohol 97 % of control

O=C1NC(=O)C(=O)N1
inactive: [5] 94 % of control | [8] 105 % of control | [11] 108 % of control

NCc1cccnc1
inactive: [13] 96 % of control | [14] 107 % of control | [15] 111 % of control

[Cl][Sb]([c]1ccccc1)([c]1ccccc1)([c]1ccccc1)[c]1ccccc1
inactive: dose: 4.7 mg/kg/injection, schedule: Q04DX003 (ip), vehicle: saline 98 % of control | dose: 9.4 mg/kg/injection, schedule: Q04DX003 (ip), vehicle: saline 102 % of control

O=C(Sc1nc2ccccc2s1)c1ccccc1
inactive: [4] 95 % of control | [7] 97 % of control | [10] 115 % of control

CC1(C)OCC(C(O)C(OC(=O)c2ccccc2)C2COC(C)(C)O2)O1 (stereo not given)
inactive: [16] 106 % of control | [17] 94 % of control | [18] 105 % of control

Cc1cc(N(CCOS(C)(=O)=O)CCOS(C)(=O)=O)ccc1C=Nc1ccc(-c2csc(Cc3ccccc3)n2)cc1
inactive: [19] 102 % of control | [20] 105 % of control

CNC(=O)C(=O)NC
inactive: dose: 100.0 mg/kg/injection, schedule: Q01DX009 (ip), vehicle: saline with Tween-80 96 % of control | dose: 100.0 mg/kg/injection, schedule: Q04DX003 (ip), vehicle: saline with Tween-80 101 % of control | dose: 200.0 mg/kg/injection, schedule: Q01DX009 (ip), vehicle: saline with Tween-80 98 % of control | dose: 200.0 mg/kg/injection, schedule: Q04DX003 (ip), vehicle: saline with Tween-80 98 % of control | dose: 400.0 mg/kg/injection, schedule: Q01DX009 (ip), vehicle: saline with Tween-80 98 % of control | dose: 400.0 mg/kg/injection, schedule: Q04DX003 (ip), vehicle: saline with Tween-80 101 % of control

CC1=CC(=O)C(C(C)C)CC1=O (stereo not given)
inactive: [19] 98 % of control | [20] 102 % of control | dose: 25.0 mg/kg/injection, schedule: Q01DX009 (ip), vehicle: saline with Tween-80 95 % of control

COc1ccc(NC(C)=O)c(O)c1C
inactive: [16] 95 % of control | [18] 90 % of control
